Like-named read-outs stand apart in the source and are kept apart here.
Key:
[1] = biological target: unphosphorylated c-FMS kinase (uFMS, Seq. ID no. 1) (Homo sapiens (Human), UniProt P07333); assay: uFMS kinase assay (ADP production coupled to pyruvate kinase/lactate dehydrogenase); format: biochemical
Outline: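 Unphosphorylated FMS (10 nM) with polyE4Y 1 mg/mL and 500 μM ATP in 90 mM Tris pH 7.5, 10 mM MgCl2, 0.2% octyl-glucoside, 1% DMSO. ADP formation was coupled via pyruvate kinase/LDH to NADH oxidation, followed at A340 for 4 h at 30° C.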

[2] = biological target: unphosphorylated c-KIT kinase (uKIT, Seq. ID no. 2) (Homo sapiens (Human), UniProt P10721); assay: uKit kinase assay (coupled pyruvate kinase/lactate dehydrogenase); format: biochemical; settings: enzymatic assay, ATP 2000 μM
Outline: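 Unphosphorylated KIT (12 nM, N-terminal GST fusion) was run with 1 mg/mL polyE4Y, 2000 μM ATP and 10 mM MgCl2 in Tris buffer (pH 7.5, 0.2% octyl-glucoside, 1% DMSO). ADP was coupled via PK/LDH, with NADH loss tracked at A340 for 4 h at 30 °C. Rates at 3–4 h gave % inhibition and IC50.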

[3] = biological target: unphosphorylated PDGFRβ kinase (uPDGFRβ, Seq. ID No. 3) (Homo sapiens (Human), UniProt P09619); assay: Unphosphorylated PDGFRβ kinase assay (coupled pyruvate kinase/lactate dehydrogenase); format: biochemical; settings: enzymatic assay, ATP 500 μM
Outline: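 Construct residues 557-1106, unphosphorylated, 15.7 nM, with poly E4Y 2.5 mg/mL and 500 μM ATP, Tris pH 7.5, 1% DMSO, 30 °C. ADP coupled to NADH oxidation via PK/LDH, A340 followed 4 h; rate from 1.5-2.5 h versus no-compound control, IC50 from percent-inhibition series.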

M-NFS-60 cells = assay: M-NFS-60 cell proliferation assay (resazurin); format: cell-based; settings: 67 h incubation
Outline: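 Cells kept in medium containing 20 ng/mL mouse recombinant M-CSF. Fluorescence was read at ex 540/em 600 nm, and IC50 was fitted from percent inhibition across a range of inhibitor concentrations.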

osteoclast precursors = assay: Osteoclast tartrate-resistant acid phosphatase assay; format: cell-based; settings: Osteoclast, 7-14 days, RANKL and M-CSF
[4] = biological target: c-FMS kinase in THP-1 cells (Homo sapiens (Human), UniProt P07333); assay: Phospho-FMS ELISA assay in THP-1 cells; format: cell-based
Experimental: THP-1 cells (catalog #TIB-202) were obtained from the ATCC. Briefly, cells were grown in RPMI 1640 supplemented with 10% characterized fetal bovine serum, 1% sodium pyruvate, 1% Penicillin-Streptomycin-Glutamine (PSG) and 55 uM 2-mercaptoethanol (Invitrogen, Carlsbad, Calif.) at 37 degrees Celsius, 5% CO2, 95% humidity. Cells were allowed to expand until reaching 70-95% confluency at which point they were subcultured or harvested for assay use.
A serial dilution of test compound was diluted 1:100 in assay medium (RPMI 1640 supplemented with 10% characterized fetal bovine serum) in a 96 well black clear bottom plate (Corning, Corning, N.Y.). In a separate 96 well black clear bottom plate, one hundred and fifty thousand THP-1 cells were added per well in 100 μL in assay medium. Fifty microliters of diluted compound was then added to the cells. Plates were incubated for 4 hours at 37 degrees Celsius, 5% CO2, 95% humidity. At the end of the incubation period, cells were stimulated with 50 μL of a 100 nM solution of recombinant human M-CSF (catalog #216-MC, R & D Systems, Minneapolis, Minn.) in assay medium and the plate was incubated for 5 minutes at 37 degrees Celsius, 5% CO2, 95% humidity. Lysates were prepared and used to perform the phospho-FMS ELISA as described by the manufacturer (catalog #DYC3268, R & D Systems, Minneapolis, Minn.). GraphPad Prism was used to calculate IC50 values obtained from data generated from the ELISA assay.

cMET kinase = cMET kinase (Homo sapiens (Human), UniProt P08581); assay: cMET kinase inhibition (Table 4); format: biochemical
KDR kinase = KDR kinase (Homo sapiens (Human), UniProt P35968); assay: KDR kinase inhibition (Table 4); format: biochemical
[5] = uFMS, enzymatic assay, ATP 500 μM
[6] = enzymatic assay, ATP 500 μM, read-out: uFMS
[7] = 4 h compound, M-CSF stimulation 5 min, read-out: pFMS inhibition in THP-1 cells

c-FMS kinase in THP-1 cells, sequence (P07333 20-972): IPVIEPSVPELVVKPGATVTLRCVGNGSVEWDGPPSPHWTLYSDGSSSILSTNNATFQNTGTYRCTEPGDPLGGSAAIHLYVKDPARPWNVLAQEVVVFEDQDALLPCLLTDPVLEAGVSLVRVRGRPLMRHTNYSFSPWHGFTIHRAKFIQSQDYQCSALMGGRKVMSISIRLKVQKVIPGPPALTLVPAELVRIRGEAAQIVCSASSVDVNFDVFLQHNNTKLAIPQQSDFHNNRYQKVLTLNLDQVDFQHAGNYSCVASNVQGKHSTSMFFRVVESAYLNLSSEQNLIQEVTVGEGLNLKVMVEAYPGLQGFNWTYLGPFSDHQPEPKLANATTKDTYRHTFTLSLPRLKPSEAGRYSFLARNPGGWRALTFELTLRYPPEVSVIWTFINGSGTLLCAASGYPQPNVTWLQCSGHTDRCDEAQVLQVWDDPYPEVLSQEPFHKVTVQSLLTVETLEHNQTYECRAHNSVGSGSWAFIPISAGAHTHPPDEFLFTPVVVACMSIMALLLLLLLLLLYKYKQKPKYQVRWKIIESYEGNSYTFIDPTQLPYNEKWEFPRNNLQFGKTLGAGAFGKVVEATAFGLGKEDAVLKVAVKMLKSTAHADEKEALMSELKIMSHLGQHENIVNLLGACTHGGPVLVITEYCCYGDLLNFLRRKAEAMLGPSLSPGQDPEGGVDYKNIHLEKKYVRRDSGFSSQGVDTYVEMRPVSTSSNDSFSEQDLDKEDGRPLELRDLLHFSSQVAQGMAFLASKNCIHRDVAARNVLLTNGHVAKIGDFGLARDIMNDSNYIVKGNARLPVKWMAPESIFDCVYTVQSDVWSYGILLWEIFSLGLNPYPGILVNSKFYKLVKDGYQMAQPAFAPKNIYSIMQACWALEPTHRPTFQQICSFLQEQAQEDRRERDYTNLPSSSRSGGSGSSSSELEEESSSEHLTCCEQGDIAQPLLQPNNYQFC
unphosphorylated PDGFRβ kinase (uPDGFRβ, Seq. ID No. 3), sequence (P09619 557-1106): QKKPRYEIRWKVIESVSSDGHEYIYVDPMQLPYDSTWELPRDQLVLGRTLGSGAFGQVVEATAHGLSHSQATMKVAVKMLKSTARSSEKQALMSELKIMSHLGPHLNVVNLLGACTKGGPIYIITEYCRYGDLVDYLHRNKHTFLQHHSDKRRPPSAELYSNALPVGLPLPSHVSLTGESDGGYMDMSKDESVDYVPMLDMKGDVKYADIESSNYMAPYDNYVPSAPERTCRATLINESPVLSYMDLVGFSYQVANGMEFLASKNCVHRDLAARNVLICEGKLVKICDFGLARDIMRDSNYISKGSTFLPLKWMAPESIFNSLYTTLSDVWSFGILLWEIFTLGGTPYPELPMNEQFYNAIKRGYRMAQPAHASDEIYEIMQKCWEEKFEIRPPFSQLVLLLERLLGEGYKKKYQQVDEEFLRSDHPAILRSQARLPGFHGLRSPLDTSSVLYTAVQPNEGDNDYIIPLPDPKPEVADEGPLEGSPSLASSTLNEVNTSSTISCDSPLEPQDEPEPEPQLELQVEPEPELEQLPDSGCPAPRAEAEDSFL
unphosphorylated c-FMS kinase (uFMS, Seq. ID no. 1), sequence (P07333 538-972): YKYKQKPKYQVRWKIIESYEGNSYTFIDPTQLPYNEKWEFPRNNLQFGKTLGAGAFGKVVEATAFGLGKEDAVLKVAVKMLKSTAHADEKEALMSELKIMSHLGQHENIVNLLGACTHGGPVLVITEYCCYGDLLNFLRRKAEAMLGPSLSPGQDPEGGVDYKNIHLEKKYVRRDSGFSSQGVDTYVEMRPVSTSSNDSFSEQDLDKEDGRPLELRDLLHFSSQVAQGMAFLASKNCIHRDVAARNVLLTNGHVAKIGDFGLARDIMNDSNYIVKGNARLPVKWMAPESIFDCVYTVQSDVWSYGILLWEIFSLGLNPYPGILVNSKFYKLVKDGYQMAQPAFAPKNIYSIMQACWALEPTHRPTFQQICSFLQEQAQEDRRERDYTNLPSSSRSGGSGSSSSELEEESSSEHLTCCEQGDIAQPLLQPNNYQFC
KDR kinase, sequence (P35968 20-1356): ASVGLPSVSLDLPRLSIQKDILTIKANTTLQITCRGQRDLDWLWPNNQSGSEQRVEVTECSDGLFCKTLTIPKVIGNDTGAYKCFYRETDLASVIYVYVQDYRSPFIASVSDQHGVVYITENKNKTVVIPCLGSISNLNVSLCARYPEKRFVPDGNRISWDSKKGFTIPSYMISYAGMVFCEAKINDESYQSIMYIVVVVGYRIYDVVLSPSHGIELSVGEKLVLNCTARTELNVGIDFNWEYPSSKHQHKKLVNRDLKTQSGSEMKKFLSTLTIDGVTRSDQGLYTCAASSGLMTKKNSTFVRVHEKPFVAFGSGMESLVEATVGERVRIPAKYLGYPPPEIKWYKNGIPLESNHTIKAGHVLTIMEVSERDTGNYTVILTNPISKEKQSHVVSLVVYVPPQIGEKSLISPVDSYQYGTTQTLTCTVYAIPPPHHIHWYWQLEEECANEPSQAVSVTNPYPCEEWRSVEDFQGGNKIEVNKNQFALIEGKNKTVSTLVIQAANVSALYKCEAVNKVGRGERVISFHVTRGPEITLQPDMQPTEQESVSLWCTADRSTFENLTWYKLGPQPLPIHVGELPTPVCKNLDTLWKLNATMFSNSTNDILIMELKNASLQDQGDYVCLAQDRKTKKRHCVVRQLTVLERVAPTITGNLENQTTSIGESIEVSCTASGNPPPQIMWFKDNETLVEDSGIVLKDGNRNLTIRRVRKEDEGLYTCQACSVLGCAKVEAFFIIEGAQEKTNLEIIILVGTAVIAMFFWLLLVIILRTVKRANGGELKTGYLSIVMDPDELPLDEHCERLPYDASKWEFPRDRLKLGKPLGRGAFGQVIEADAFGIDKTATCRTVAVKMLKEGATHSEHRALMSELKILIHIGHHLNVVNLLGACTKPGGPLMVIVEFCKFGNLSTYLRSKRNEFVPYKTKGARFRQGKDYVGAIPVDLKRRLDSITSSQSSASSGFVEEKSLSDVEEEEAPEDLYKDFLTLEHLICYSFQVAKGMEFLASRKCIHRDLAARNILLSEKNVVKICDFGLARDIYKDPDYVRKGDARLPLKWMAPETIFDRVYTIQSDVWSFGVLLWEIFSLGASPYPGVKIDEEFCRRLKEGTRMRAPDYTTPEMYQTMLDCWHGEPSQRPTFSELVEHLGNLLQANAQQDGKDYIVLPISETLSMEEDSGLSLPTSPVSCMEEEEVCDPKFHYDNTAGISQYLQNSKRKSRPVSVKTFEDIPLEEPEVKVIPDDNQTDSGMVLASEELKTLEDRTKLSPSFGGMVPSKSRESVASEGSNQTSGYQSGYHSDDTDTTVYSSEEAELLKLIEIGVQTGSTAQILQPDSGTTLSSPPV
cMET kinase, sequence (P08581 25-1390): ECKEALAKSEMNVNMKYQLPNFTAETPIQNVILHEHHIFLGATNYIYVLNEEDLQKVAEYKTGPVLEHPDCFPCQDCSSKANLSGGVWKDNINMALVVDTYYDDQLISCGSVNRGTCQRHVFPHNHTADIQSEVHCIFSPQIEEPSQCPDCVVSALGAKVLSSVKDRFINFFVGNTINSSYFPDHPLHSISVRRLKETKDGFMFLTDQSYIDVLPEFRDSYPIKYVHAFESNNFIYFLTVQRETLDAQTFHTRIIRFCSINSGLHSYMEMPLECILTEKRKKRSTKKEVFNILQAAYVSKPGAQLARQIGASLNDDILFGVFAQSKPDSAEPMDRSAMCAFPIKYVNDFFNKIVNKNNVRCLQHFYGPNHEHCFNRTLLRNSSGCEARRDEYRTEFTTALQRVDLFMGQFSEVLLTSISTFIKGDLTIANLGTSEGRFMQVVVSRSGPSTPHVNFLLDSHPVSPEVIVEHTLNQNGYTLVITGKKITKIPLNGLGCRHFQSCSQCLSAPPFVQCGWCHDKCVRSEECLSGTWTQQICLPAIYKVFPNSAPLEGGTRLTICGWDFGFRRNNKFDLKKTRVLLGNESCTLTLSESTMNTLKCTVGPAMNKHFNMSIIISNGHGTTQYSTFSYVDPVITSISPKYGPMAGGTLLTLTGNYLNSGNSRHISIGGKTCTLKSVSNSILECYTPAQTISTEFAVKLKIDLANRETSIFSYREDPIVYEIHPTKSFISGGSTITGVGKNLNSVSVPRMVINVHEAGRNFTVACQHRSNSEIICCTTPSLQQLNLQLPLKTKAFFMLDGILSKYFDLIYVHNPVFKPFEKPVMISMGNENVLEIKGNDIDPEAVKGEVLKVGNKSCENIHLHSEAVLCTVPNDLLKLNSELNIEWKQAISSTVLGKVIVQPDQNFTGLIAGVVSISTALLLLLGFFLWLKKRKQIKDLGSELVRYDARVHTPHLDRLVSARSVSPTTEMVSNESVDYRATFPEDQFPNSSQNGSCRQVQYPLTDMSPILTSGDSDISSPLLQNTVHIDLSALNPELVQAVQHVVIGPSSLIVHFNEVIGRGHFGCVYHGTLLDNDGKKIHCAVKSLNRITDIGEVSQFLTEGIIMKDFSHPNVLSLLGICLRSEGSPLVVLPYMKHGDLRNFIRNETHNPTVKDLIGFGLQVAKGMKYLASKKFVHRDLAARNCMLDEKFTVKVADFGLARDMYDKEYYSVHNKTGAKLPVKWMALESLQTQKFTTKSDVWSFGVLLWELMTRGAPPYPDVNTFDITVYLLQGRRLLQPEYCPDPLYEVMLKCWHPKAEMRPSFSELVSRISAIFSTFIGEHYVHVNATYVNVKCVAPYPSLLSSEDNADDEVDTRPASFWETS

SMILES | IC50 [1, 5] [nM] | IC50 [2] [nM] | IC50 [3] [nM] | IC50 (M-NFS-60 cells) [nM] | IC50 (osteoclast precursors) [nM] | IC50 [4] [nM] | IC50 [1, 6] [nM] | IC50 [4, 7] [nM] | IC50 ([1]; Table 4, read-out: c-FMS IC50) [nM] | IC50 (cMET kinase) [nM] | IC50 (KDR kinase) [nM]
Cc1nc(NC(=O)N2CCN(C3CCOC3)C2=O)ccc1Oc1ccnc(-c2cnn(C)c2)c1 (stereo in doubt) [Example 23, (S)—N-(6-methyl-5-((2-(1-methyl-1H-pyrazol-4-yl)pyridin-4-yl)oxy)pyridin-2-yl)-2-oxo-3-(tetrahydrofuran-3-yl)imidazolidine-1-carboxamide] | 10 to 100 | > 1000 | > 1000 | 10 to 100 | 10 to 100 | 10 to 100 | – | – | – | – | –
O=C(Nc1ccc(Oc2ccnc(-c3cn[nH]c3)c2)cn1)N1CCN(C2CCOCC2)C1=O [Example 5, N-(5-((2-(1H-pyrazol-4-yl)pyridin-4-yl)oxy)pyridin-2-yl)-2-oxo-3-(tetrahydro-2H-pyran-4-yl)imidazolidine-1-carboxamide] | 10 to 100 | – | 100 to 1000 | 10 to 100 | 10 to 100 | 100 to 1000 | – | – | – | – | –
Cc1cc(-c2cc(Oc3ccc(NC(=O)N4CCN(C5CCOCC5)C4=O)nc3C)ccn2)on1 [Example 14, N-(6-methyl-5-((2-(3-methylisoxazol-5-yl)pyridin-4-yl)oxy)pyridin-2-yl)-2-oxo-3-(tetrahydro-2H-pyran-4-yl)imidazolidine-1-carboxamide] | – | – | > 1000 | 100 to 1000 | 10 to 100 | – | 10 to 100 | 100 to 1000 | – | – | –
Cn1cc(-c2cc(Oc3ccc(NC(=O)N4CCN(C5CCCCC5)C4=O)nc3)ccn2)cn1 [Example 15, 3-cyclohexyl-N-(5-((2-(1-methyl-1H-pyrazol-4-yl)pyridin-4-yl)oxy)pyridin-2-yl)-2-oxoimidazolidine-1-carboxamide] | – | – | 10 to 100 | < 10 | < 10 | – | < 10 | 10 to 100 | 3 | 370 | 670
[2H]C([2H])([2H])n1cc(-c2cc(Oc3ccc(NC(=O)N4CCN([C@@H]5CCOC5)C4=O)nc3C)ccn2)cn1 [Example 37, (R)—N-(6-methyl-5-((2-(1-(trideuteromethyl)-1H-pyrazol-4-yl)pyridin-4-yl)oxy)pyridin-2-yl)-2-oxo-3-(tetrahydrofuran-3-yl)imidazolidine-1-carboxamide] | 10 to 100 | 100 to 1000 | > 1000 | 10 to 100 | 10 to 100 | 10 to 100 | – | – | – | – | –
CNC(=O)c1cc(Oc2ccc(NC(=O)N3CCN(C(C)(C)C)C3=O)nc2)ccn1 [Example 90, 4-((6-(3-(tert-butyl)-2-oxoimidazolidine-1-carboxamido)pyridin-3-yl)oxy)-N-methylpicolinamide] | – | 10 to 100 | 10 to 100 | 10 to 100 | 10 to 100 | – | < 10 | – | 5 | > 5000 | 3300
Cn1cc(-c2cc(Oc3cc(F)c(NC(=O)N4CCN(C5CCOCC5)C4=O)cc3F)ccn2)cn1 [Example 91, N-(2,5-difluoro-4-((2-(1-methyl-1H-pyrazol-4-yl)pyridin-4-yl)oxy)phenyl)-2-oxo-3-(tetrahydro-2H-pyran-4-yl)imidazolidine-1-carboxamide] | – | 100 to 1000 | – | 10 to 100 | 10 to 100 | – | < 10 | 10 to 100 | 7 | > 5000 | > 3300
Cn1cc(-c2cc(Oc3cc(F)c(NC(=O)N4CCN(C5CCOCC5)C4=O)cc3Cl)ccn2)cn1 [Example 92, N-(5-chloro-2-fluoro-4-((2-(1-methyl-1H-pyrazol-4-yl)pyridin-4-yl)oxy)phenyl)-2-oxo-3-(tetrahydro-2H-pyran-4-yl)imidazolidine-1-carboxamide] | – | 10 to 100 | – | 10 to 100 | 10 to 100 | – | < 10 | 10 to 100 | – | – | –
CN(C)C(=O)Nc1cc(Oc2cc(F)c(NC(=O)N3CCN(C4CCOCC4)C3=O)cc2Cl)ccn1 [Example 101, N-(5-chloro-4-((2-(3,3-dimethylureido)pyridin-4-yl)oxy)-2-fluorophenyl)-2-oxo-3-(tetrahydro-2H-pyran-4-yl)imidazolidine-1-carboxamide] | – | – | 100 to 1000 | 10 to 100 | < 10 | – | < 10 | 10 to 100 | 8 | 4000 | > 3300

Source: patent US9133183B2, “Imidazolidinones and analogs exhibiting anti-cancer and anti-proliferative activities” (Deciphera Pharmaceuticals, LLC, priority 2013, dated 2015)
